This note sets out measurements from patent US20220046923A1, “HERBICIDAL CINNOLINIUM COMPOUNDS” (SYNGENTA CROP PROTECTION AG, priority 2018, published 2022).

Experiment in all cases: Post-emergence efficacy, glasshouse spray test
Type in all cases: in vivo

The test system of test [1] is Ipomoea hederacea (IPOHE). Particulars: evaluated after 13 days; for pest or weed control at 1000 g/ha / pest or weed control at 500 g/ha: Ipomoea hederacea, post-emergence, 312 h, read-out: Control of weed species IPOHE after post-emergence application (100=total damage to plant; 0=no damage to plant). The procedure, abridged: (§1)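 Plants sown in standard soil were grown 14 days in a glasshouse (24/16 °C day/night, 14 h light, 65% humidity) and then sprayed post-emergence. Compound in acetone/IF50 emulsifier mix was diluted in 0.25% or 1% Empicol ESC70 + 1% ammonium sulphate. Damage was scored after 13 days (0 = none, 100 = total).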

Test [2] deals with Amaranthus palmeri (AMAPA). Particulars: evaluated after 13 days; for pest or weed control at 1000 g/ha / pest or weed control at 500 g/ha: Amaranthus palmeri, post-emergence, 312 h, read-out: Control of weed species AMAPA after post-emergence application (100=total damage to plant; 0=no damage to plant). The procedure, abridged: as §1
The test system of test [3] is Euphorbia heterophylla (EPHHL). The conditions noted are these: evaluated after 13 days; for pest or weed control at 1000 g/ha / pest or weed control at 500 g/ha: Euphorbia heterophylla, post-emergence, 312 h, read-out: Control of weed species EPHHL after post-emergence application (100=total damage to plant; 0=no damage to plant). The procedure, abridged:
as §1

Test [4] has as its system Digitaria sanguinalis (DIGSA). Particulars: evaluated after 13 days; for pest or weed control at 1000 g/ha / pest or weed control at 500 g/ha: Digitaria sanguinalis, post-emergence, 312 h, read-out: Control of weed species DIGSA after post-emergence application (100=total damage to plant; 0=no damage to plant). The procedure, abridged:
as §1

The subject of a further test is Eleusine indica (ELEIN). Particulars: evaluated after 13 days; for pest or weed control at 1000 g/ha / pest or weed control at 500 g/ha: Eleusine indica, post-emergence, 312 h, read-out: Control of weed species ELEIN after post-emergence application (100=total damage to plant; 0=no damage to plant). The procedure, abridged: as §1
Test [5] has as its system Echinochloa crus-galli (ECHCG). The conditions noted are these: evaluated after 13 days; for pest or weed control at 1000 g/ha / pest or weed control at 500 g/ha: Echinochloa crus-galli, post-emergence, 312 h, read-out: Control of weed species ECHCG after post-emergence application (100=total damage to plant; 0=no damage to plant). The procedure, abridged:
as §1

Another test concerns Lolium perenne (LOLPE). The conditions noted are these: evaluated after 13 days; for pest or weed control at 1000 g/ha / pest or weed control at 500 g/ha: Lolium perenne, post-emergence, 312 h, read-out: Control of weed species LOLPE after post-emergence application (100=total damage to plant; 0=no damage to plant). The procedure, abridged: as §1
Test [6] deals with Chenopodium album (CHEAL). The conditions noted are these: evaluated after 13 days; for pest or weed control at 1000 g/ha / pest or weed control at 500 g/ha: Chenopodium album, post-emergence, 312 h, read-out: Control of weed species CHEAL after post-emergence application (100=total damage to plant; 0=no damage to plant). The procedure, abridged: as §1
A further test has as its system Setaria faberi (SETFA). Particulars: evaluated after 13 days; for pest or weed control at 1000 g/ha / pest or weed control at 500 g/ha: Setaria faberi, post-emergence, 312 h, read-out: Control of weed species SETFA after post-emergence application (100=total damage to plant; 0=no damage to plant). The procedure, abridged:
as §1

For the compound `O=C(O)c1ccc(C[n+]2ccc3ccccc3n2)cc1` [Compound A89], the pest or weed control at 1000 g/ha in test [1] (application rate 1000 g/Ha) came out at 20%; in test [2] (application rate 1000 g/Ha) it was 20%; in [3] (application rate 1000 g/Ha) it was 40%; in test [4] (application rate 1000 g/Ha), 0%; in the test with Eleusine indica (ELEIN) (application rate 1000 g/Ha), 0%; in test [5] (application rate 1000 g/Ha) it was 0%. Further, the pest or weed control at 1000 g/ha (with Lolium perenne (LOLPE) (application rate 1000 g/Ha); in test [6] (application rate 1000 g/Ha); in the test on Setaria faberi (SETFA) (application rate 1000 g/Ha)) was 0% each time.
As to `O=S(=O)(O)c1cccc(C[n+]2ccc3ccccc3n2)c1` [Compound A93, 3-(cinnolin-2-ium-2-ylmethyl)benzenesulfonic Acid], the “Control of weed species IPOHE after post-emergence application (100=total damage to plant; 0=no damage to plant)” value in test [1] (application rate 1000 g/Ha) was determined as 40. Moreover, the “Control of weed species AMAPA after post-emergence application (100=total damage to plant; 0=no damage to plant)” value in test [2] (application rate 1000 g/Ha) is 10. The “Control of weed species EPHHL after post-emergence application (100=total damage to plant; 0=no damage to plant)” value in [3] (application rate 1000 g/Ha) came to 50. The “Control of weed species DIGSA after post-emergence application (100=total damage to plant; 0=no damage to plant)” value in test [4] (application rate 1000 g/Ha) worked out at 20. Further, in the test on Eleusine indica (ELEIN) (application rate 1000 g/Ha), the “Control of weed species ELEIN after post-emergence application (100=total damage to plant; 0=no damage to plant)” value was determined as 10. Also, the “Control of weed species ECHCG after post-emergence application (100=total damage to plant; 0=no damage to plant)” value in test [5] (application rate 1000 g/Ha) turned out to be 20. Further, the “Control of weed species LOLPE after post-emergence application (100=total damage to plant; 0=no damage to plant)” value in the test with Lolium perenne (LOLPE) (application rate 1000 g/Ha) amounted to 10. Besides, the “Control of weed species CHEAL after post-emergence application (100=total damage to plant; 0=no damage to plant)” value in [6] (application rate 1000 g/Ha) was 10. In addition, the “Control of weed species SETFA after post-emergence application (100=total damage to plant; 0=no damage to plant)” value with Setaria faberi (SETFA) (application rate 1000 g/Ha) was found to be 20.
Consider `O=S(=O)([O-])CC[n+]1ccc2ccc(Cl)cc2n1` [Compound A94], for which the pest or weed control at 1000 g/ha in [1] (application rate 1000 g/Ha) is 40%; in test [2] (application rate 1000 g/Ha) it was 100%; in [3] (application rate 1000 g/Ha), 100%; in test [4] (application rate 1000 g/Ha), 50%; with Eleusine indica (ELEIN) (application rate 1000 g/Ha), 90%; in test [5] (application rate 1000 g/Ha), 40%. In addition, the values for the pest or weed control at 1000 g/ha (with Lolium perenne (LOLPE) (application rate 1000 g/Ha); in test [6] (application rate 1000 g/Ha); in the test on Setaria faberi (SETFA) (application rate 1000 g/Ha)) were 40%, 90% and 50%, respectively.
`O=S(=O)([O-])CC[n+]1ccc2cccc(C(F)(F)F)c2n1` [Compound A95]: the pest or weed control at 1000 g/ha in test [1] (application rate 1000 g/Ha) was 10%; in test [2] (application rate 1000 g/Ha) it was 40%; in test [3] (application rate 1000 g/Ha), 50%; in test [4] (application rate 1000 g/Ha) it was 10%; with Eleusine indica (ELEIN) (application rate 1000 g/Ha), 10%; in test [5] (application rate 1000 g/Ha) it was 10%. Moreover, the pest or weed control at 1000 g/ha turned out to be 0% in the test on Lolium perenne (LOLPE) (application rate 1000 g/Ha), 50% in [6] (application rate 1000 g/Ha) and 10% with Setaria faberi (SETFA) (application rate 1000 g/Ha).
In the case of `O=S(=O)([O-])CC[n+]1ccc2c(Cl)cccc2n1` [Compound A96], the pest or weed control at 1000 g/ha came out at 20% in test [1] (application rate 1000 g/Ha); 70% in test [2] (application rate 1000 g/Ha); 100% in test [3] (application rate 1000 g/Ha); 60% in test [4] (application rate 1000 g/Ha); 60% with Eleusine indica (ELEIN) (application rate 1000 g/Ha); 40% in test [5] (application rate 1000 g/Ha). Besides, the pest or weed control at 1000 g/ha came to 40% in the test on Lolium perenne (LOLPE) (application rate 1000 g/Ha), 100% in test [6] (application rate 1000 g/Ha) and 30% with Setaria faberi (SETFA) (application rate 1000 g/Ha).
Consider `Cc1cccc2n[n+](CCS(=O)(=O)[O-])ccc12` [Compound A97], for which the pest or weed control at 500 g/ha in test [1] (application rate 500 g/Ha) worked out at 10%; in test [2] (application rate 500 g/Ha), 100%; in [3] (application rate 500 g/Ha) it was 80%; in test [4] (application rate 500 g/Ha) it was 50%; in the test on Eleusine indica (ELEIN) (application rate 500 g/Ha), 70%; in test [5] (application rate 500 g/Ha) it was 30%. Also, the pest or weed control at 500 g/ha in the test on Lolium perenne (LOLPE) (application rate 500 g/Ha) turned out to be 10%; in test [6] (application rate 500 g/Ha), 90%; with Setaria faberi (SETFA) (application rate 500 g/Ha), 60%.
On to `O=S(=O)([O-])CC[n+]1ccc2cc(C(F)(F)F)ccc2n1` [Compound A98], for which the pest or weed control at 500 g/ha came out at 0% in test [1] (application rate 500 g/Ha); 0% in [2] (application rate 500 g/Ha); 40% in test [3] (application rate 500 g/Ha); 10% in test [4] (application rate 500 g/Ha); 20% in the test with Eleusine indica (ELEIN) (application rate 500 g/Ha); 10% in test [5] (application rate 500 g/Ha). Moreover, the pest or weed control at 500 g/ha is 10% with Lolium perenne (LOLPE) (application rate 500 g/Ha), 30% in test [6] (application rate 500 g/Ha) and 0% with Setaria faberi (SETFA) (application rate 500 g/Ha).
Take `CCOP(=O)(CC[n+]1ccc2ccccc2n1)OCC.[Br-]` [Compound A99]: the “Control of weed species IPOHE after post-emergence application (100=total damage to plant; 0=no damage to plant)” value in test [1] (application rate 500 g/Ha) is reported as 10. Besides, the “Control of weed species AMAPA after post-emergence application (100=total damage to plant; 0=no damage to plant)” value in test [2] (application rate 500 g/Ha) is on record as 10. In addition, in test [3] (application rate 500 g/Ha), the “Control of weed species EPHHL after post-emergence application (100=total damage to plant; 0=no damage to plant)” value is 40. The “Control of weed species DIGSA after post-emergence application (100=total damage to plant; 0=no damage to plant)” value in test [4] (application rate 500 g/Ha) came to 50. The “Control of weed species ELEIN after post-emergence application (100=total damage to plant; 0=no damage to plant)” value with Eleusine indica (ELEIN) (application rate 500 g/Ha) amounted to 30. Also, in [5] (application rate 500 g/Ha), the “Control of weed species ECHCG after post-emergence application (100=total damage to plant; 0=no damage to plant)” value is on record as 40. The “Control of weed species LOLPE after post-emergence application (100=total damage to plant; 0=no damage to plant)” value with Lolium perenne (LOLPE) (application rate 500 g/Ha) was 20. In addition, the “Control of weed species CHEAL after post-emergence application (100=total damage to plant; 0=no damage to plant)” value in [6] (application rate 500 g/Ha) came out at 20. Moreover, in the test with Setaria faberi (SETFA) (application rate 500 g/Ha), the “Control of weed species SETFA after post-emergence application (100=total damage to plant; 0=no damage to plant)” value was 50.
`COC(=O)c1ccc2n[n+](CCS(=O)(=O)[O-])ccc2c1` [Compound A100]: the pest or weed control at 500 g/ha in test [1] (application rate 500 g/Ha) is 30%; in test [2] (application rate 500 g/Ha), 30%; in test [3] (application rate 500 g/Ha), 40%; in test [4] (application rate 500 g/Ha) it was 10%; with Eleusine indica (ELEIN) (application rate 500 g/Ha) it was 10%; in [5] (application rate 500 g/Ha) it was 10%. The results for the pest or weed control at 500 g/ha (in the test with Lolium perenne (LOLPE) (application rate 500 g/Ha); in test [6] (application rate 500 g/Ha); in the test on Setaria faberi (SETFA) (application rate 500 g/Ha)) were 0%, 30% and 20%, respectively.
For `CCOP(=O)(O)CC[n+]1ccc2ccccc2n1` [Compound A103], the pest or weed control at 500 g/ha was determined as 20% in test [1] (application rate 500 g/Ha); 20% in test [2] (application rate 500 g/Ha); 40% in test [3] (application rate 500 g/Ha); 60% in test [4] (application rate 500 g/Ha); 30% in the test on Eleusine indica (ELEIN) (application rate 500 g/Ha); 30% in test [5] (application rate 500 g/Ha). Moreover, the pest or weed control at 500 g/ha stood at 20% in the test with Lolium perenne (LOLPE) (application rate 500 g/Ha), 0% in test [6] (application rate 500 g/Ha) and 60% in the test on Setaria faberi (SETFA) (application rate 500 g/Ha).
